Experiments:
[1] = Hydrolysis under a relatively-high acidic- and temperature-condition; assay type: physicochemical; details: relative to the substances X and Y; pH 1.7, 100° C.
Protocol: Thus, we removed 2-O-α-D-glucopyranosyl-L-ascorbic acid by using this hydrolysis.
The method was as follows: The second mother liquor was adjusted to give a concentration of 25%, adjusted to pH 1.7 by the addition of hydrochloric acid, and allowed to predominantly hydrolyze 2-O-α-D-glucopyranosyl-L-ascorbic acid at 100° C. Thereafter, the resultant solution was cooled and fed to a column packed with an anion exchange resin (OH^- -form) to adsorb the substances X and Y thereon, and the column was washed with water and fed with 0.5N hydrochloric acid to obtain a solution containing the substances X and Y.

[2] = physchem; assay type: physicochemical; details: for Stability, residual percentage: 0 min, 70 uM; for remaining at 21 h, 70 µM / remaining at 0.5 h, 70 µM / remaining at 1 h, 70 µM / remaining at 0.25 h, 70 µM: aqueous solution
Protocol: (h) Stability: The stability of the substance X was compared with L-ascorbic acid as a control. Each specimen was adjusted to give a concentration of 70 μM and to pH 7.0 or pH 2.0, and the resultant each solution was placed in a cell for an absorption spectrophotometer. The cell was set to the absorption spectrophotometer and kept at 20° C., followed by determining at a prescribed time interval an absorbance at 265 nm with the solution of pH 7.0 and an absorbance at 243 nm with the solution of pH 2.0, and comparing the residual percentage (%) of each specimen.

[3] = system: enzyme of a small intestinal membrane; assay: Hydrolysis by enzyme of small intestinal membrane; assay type: in vitro ADME; details: method of Okada et al.
[4] = system: 7 week-old dd mice; assay: Acute toxicity test, oral; assay type: in vivo; details: up to 5 g of the specimen, a higher dose was difficult
Description: A high-purity 5-O-α-D-glucopyranosyl-L-ascorbic acid, prepared by the method in Experiment 1, was orally administered to 7 week-old dd mice for acute toxicity test. As a result, no mouse died when administered with up to 5 g of the specimen, and a higher dose was difficult.

[5] = Solubility in solvents; assay type: physicochemical
[6] = Coloring reaction / direct reducing activity; assay type: physicochemical

With `O=C1O[C@H]([C@@H](O)CO)C(O)=C1O[C@H]1O[C@H](CO)[C@@H](O)[C@H](O)[C@H]1O` [2-O-α-D-glucopyranosyl-L-ascorbic acid] the “Hydrolysis under relatively-high acidic- and temperature-condition” value [1] was “more readily hydrolyzed than the substances X and Y”.
For `O=C1O[C@H]([C@@H](O)CO)C(O)=C1O` [AsA, L-ascorbic acid], the “Stability, residual percentage” value ([2]; pH 2) was 100%, the “Stability, residual percentage” value ([2]; pH 7) was 100% and the remaining at 21 h, 70 µM ([2]; pH 2) was 10%. For the same compound, the remaining at 0.5 h, 70 µM ([2]; pH 7) was 20%, the remaining at 1 h, 70 µM ([2]; pH 7) was 8% and the remaining at 21 h, 70 µM ([2]; pH 7) was 2%.
In the case of `O=C1O[C@H]([C@H](CO)O[C@H]2O[C@H](CO)[C@@H](O)[C@H](O)[C@H]2O)C(O)=C1O` [substance X, 5-O-α-D-glucopyranosyl-L-ascorbic acid], the “Hydrolysis by enzyme of small intestinal membrane” value [3] is reported as “readily hydrolyzed”, the “Stability compared with L-ascorbic acid” value [2] is reported as “stabler than L-ascorbic acid” and the “Stability, residual percentage” value ([2]; pH 2) is reported as 100%. The “Stability, residual percentage” value ([2]; pH 7) was 100%, the remaining at 0.25 h, 70 µM ([2]; pH 2) was 99% and the remaining at 0.5 h, 70 µM ([2]; pH 2) was 98%. It also gave a remaining at 1 h, 70 µM ([2]; pH 2) of 90%, a remaining at 21 h, 70 µM ([2]; pH 2) of 50% and a remaining at 0.25 h, 70 µM ([2]; pH 7) of 58%. For the same compound, the remaining at 0.5 h, 70 µM ([2]; pH 7) was 35%, the remaining at 1 h, 70 µM ([2]; pH 7) was 16% and the remaining at 21 h, 70 µM ([2]; pH 7) was 6%. For the same compound, the “Acute toxicity, mortality” value [4] was “no mouse died”, the “Solubility in 0.1M acetic acid” value ([5]; 0.1M acetic acid) was “readily soluble” and the “Solubility in 0.1N sodium hydroxide” value ([5]; 0.1N sodium hydroxide) was “readily soluble”. For the same compound, the Solubility in benzene ([5]; benzene) was “insoluble”, the Solubility in chloroform ([5]; chloroform) was “insoluble” and the Solubility in ethanol ([5]; ethanol) was “slightly soluble”. For the same compound, the Solubility in ether ([5]; ether) was “insoluble”, the Solubility in methanol ([5]; methanol) was “slightly soluble” and the Solubility in water ([5]; water) was “readily soluble”. For the same compound, the “Reducing activity (decoloring of 2,6-dichlorophenolindophenol)” value [6] was “exhibits a reducing activity, and decolors 2,6-dichlorophenolindophenol”.
With `O=C1O[C@H]([C@@H](O)CO[C@H]2O[C@H](CO)[C@@H](O)[C@H](O)[C@H]2O)C(O)=C1O` [substance Y, 6-O-α-D-glucopyranosyl-L-ascorbic acid, reference compound] the “Hydrolysis by enzyme of small intestinal membrane” value [3] was “not substantially hydrolyzed”.
